The values that follow come from patent publication US20060189686A1, “Use of a combination of substances to prevent biofouling organisms” (priority 2005, published 2006).

One experiment deals with barnacle cyprid larvae. As to the kind of experiment: Settling experiments with barnacle cyprid larvae (Example 1). It counts as in vivo. The conditions noted are these: for Dead (%) / Free swimming (%) / Settled (%): counted after one week. The protocol: Barnacle cyprid larvae were incubated in filtered sea water with and without the tested substance.
(§1) Settling experiments were performed in order to evaluate the substances effect on settling rate of cyprid larvae. The barnacle cyprid larvae are reared in the laboratory. Approximately 20 cyprids were incubated in seawater in plastic hydrophobic Petri-dishes. Substances subjected for testing were added in different concentration and compared with controls. After one week the amount of settled, frees-swimming and dead larvae in the Petri dishes were counted.

The next experiment concerns algae. To be noted: target protein lacking in algae; reference (6); cited from earlier work.
The next experiment concerns Barnacle. As to the kind of experiment: Cyprid settling rate assay, single compounds and combinations (Example 2). It counts as in vivo. The conditions noted are these: single substance. The protocol:
as §1
(§2) Catemine 3 is combined with an effective anti-algae compound according to the invention, such as dichlofluanid (table 3), SeaNine™ (table 4), Irgarol™ (table 5) and Diuron™ (table 6). All the different brands are tested in combination with Catemine 3 for efficacy against both barnacles and algae with the two compounds together or separately. The assays that are be used are the cyprid settling rate assay and the algae germination test.

The next experiment has as its system Ulva. In words: Algae spore germination test, Ulva. It counts as in vivo. The conditions noted are these: single substance. On the procedure: The efficacy of algicides is usually tested by a spore germination test. Algae are collected from the field and grown in the laboratory. […] The water with test compound is then removed and culture medium is added. The spores are left to germinate under fluorescent lamps (50 μMm-2s-1 (PAR)), 16 h light, 8 h darkness, for 7 days in a culture medium, which was changed once a day. […]

For a further experiment, the system named is Enteromorpha. In words: Algae spore germination test, Enteromorpha. It is filed as in vivo. The conditions noted are these: single substance. On the procedure: The efficacy of algicides is usually tested by a spore germination test. Algae are collected from the field and grown in the laboratory. After induced sporulation the spores are added to test vials, with the test compound dissolved in pasteurized deep sea water, where they are allowed to settle in darkness for a couple of hours (2-3 h) to give an even distribution of settled spores in the vials. The water with test compound is then removed and culture medium is added. The spores are left to germinate under fluorescent lamps (50 μMm-2s-1 (PAR)), 16 h light, 8 h darkness, for 7 days in a culture medium, which was changed once a day.
as §2

As for `Cc1cccc(C(C)c2c[nH]cn2)c1C` (racemic) [Catemine 1, (+/−)-4-[1-(2,3-dimethylphenyl)ethyl]-1H-imidazole], the “Dead (%)” value with barnacle cyprid larvae (100 pM in seawater), in the experiment with barnacle cyprid larvae (1 nM in seawater), in the experiment on barnacle cyprid larvae (10 nM in seawater), with barnacle cyprid larvae (100 nM in seawater) and in the experiment with barnacle cyprid larvae (1 μM in seawater) was 0% throughout. The “Free swimming (%)” value in the experiment with barnacle cyprid larvae (100 pM in seawater) is recorded as 48%; in the experiment on barnacle cyprid larvae (1 nM in seawater), 98%; in the experiment on barnacle cyprid larvae (10 nM in seawater), 100%; in the experiment on barnacle cyprid larvae (100 nM in seawater) it was 100%; with barnacle cyprid larvae (1 μM in seawater), 100%. Also, the “Settled (%)” value is on record as 52% with barnacle cyprid larvae (100 pM in seawater); 2% in the experiment with barnacle cyprid larvae (1 nM in seawater); 0% in the experiment with barnacle cyprid larvae (10 nM in seawater); 0% in the experiment with barnacle cyprid larvae (100 nM in seawater); 0% in the experiment on barnacle cyprid larvae (1 μM in seawater). Besides, in the experiment on algae, the “Effect on algal growth” value is “no effect of algal growth”.
For the molecule `NC1=N[C@]2(CCc3cccc(Cl)c3C2)CO1` [Catemine 3, (S)-spiro[(1-oxa-2-amino-3-azacyclopent-2-ene)-4,29-(89-chloro-19,29,39,49 tetrahydronaphthalene)]], the “Dead (%)” value with barnacle cyprid larvae (10 pM in seawater) turned out to be 0%; in the experiment with barnacle cyprid larvae (100 pM in seawater), 5%; with barnacle cyprid larvae (1 nM in seawater), 3%; with barnacle cyprid larvae (10 nM in seawater) it was 0%; with barnacle cyprid larvae (100 nM in seawater) it was 0%; in the experiment with barnacle cyprid larvae (1 μM in seawater) it was 0%. For the same molecule, the results for the “Dead (%)” value in the experiment with barnacle cyprid larvae (10 μM in seawater) and with barnacle cyprid larvae (100 μM in seawater) were 2% and 100%, respectively. Besides, the “Free swimming (%)” value in the experiment with barnacle cyprid larvae (10 pM in seawater) amounted to 96%; in the experiment on barnacle cyprid larvae (100 pM in seawater), 93%; in the experiment with barnacle cyprid larvae (1 nM in seawater), 97%; in the experiment on barnacle cyprid larvae (10 nM in seawater), 95%; in the experiment on barnacle cyprid larvae (100 nM in seawater), 100%; in the experiment on barnacle cyprid larvae (1 μM in seawater), 100%. Besides, the “Free swimming (%)” value in the experiment on barnacle cyprid larvae (10 μM in seawater) worked out at 98%; in the experiment on barnacle cyprid larvae (100 μM in seawater), 0%. In addition, the “Settled (%)” value with barnacle cyprid larvae (10 pM in seawater) stood at 4%; with barnacle cyprid larvae (100 pM in seawater) it was 2%; with barnacle cyprid larvae (1 nM in seawater) it was 0%; in the experiment with barnacle cyprid larvae (10 nM in seawater) it was 3%; with barnacle cyprid larvae (100 nM in seawater), 0%; with barnacle cyprid larvae (1 μM in seawater), 0%. Moreover, the “Settled (%)” value with barnacle cyprid larvae (10 μM in seawater) and with barnacle cyprid larvae (100 μM in seawater) was 0% each time. Besides, the “Decrease in concentration needed for settlement inhibition compared to Catemine 1” value in the experiment with barnacle cyprid larvae (compared to Catemine 1) is on record as 100-fold decrease in concentration needed for settlement inhibition. For the same molecule, the “Potency comparison of antisettling activity” value in the experiment with barnacle cyprid larvae (comparison of Tables 1 and 2) was “more potent than Catemine 1”. Also, the “Barnacle biofouling (% settlement)” value in the experiment on Barnacle (0.1 nM) is 10%; in the experiment on Barnacle (1 nM), 0%; with Barnacle (10 nM), 0%; in the experiment on Barnacle (100 nM), 0%. In addition, the “Ulva biofouling (% survival)” value in the experiment with Ulva (0.1 nM), in the experiment with Ulva (1 nM), in the experiment on Ulva (10 nM) and with Ulva (100 nM) was 100% in each case. In addition, the “Enteromorpha biofouling (% survival)” value in the experiment on Enteromorpha (0.1 nM), with Enteromorpha (1 nM), with Enteromorpha (10 nM) and with Enteromorpha (100 nM) was 100% in each case.
With `CN(C)S(=O)(=O)N(SC(F)(Cl)Cl)c1ccccc1` [Dichlofluanid, N′-dimethyl-N-phenylsulphamide], the “Barnacle biofouling (% settlement)” value in the experiment with Barnacle (0.1 μg/ml) is reported as 100%; in the experiment on Barnacle (1 μg/ml), 50%; in the experiment with Barnacle (10 μg/ml), 25%; in the experiment on Barnacle (100 μg/ml), 0%. The “Ulva biofouling (% survival)” value in the experiment with Ulva (0.1 μg/ml) is 100%; in the experiment on Ulva (1 μg/ml) it was 90%; with Ulva (10 μg/ml), 10%; in the experiment with Ulva (100 μg/ml) it was 0%.
For `CN(C)C(=O)Nc1ccc(Cl)c(Cl)c1` [Diuron, 3-(3,4-dichlorophenyl)1,1-dimethylurea], the “Barnacle biofouling (% settlement)” value in the experiment with Barnacle (0.1 μM), in the experiment on Barnacle (1 μM), in the experiment with Barnacle (10 μM) and in the experiment on Barnacle (100 μM) was 100% each time. The “Ulva biofouling (% survival)” value in the experiment on Ulva (0.1 μM) is 100%; with Ulva (1 μM) it was 90%; with Ulva (10 μM) it was 50%; in the experiment on Ulva (100 μM) it was 0%.
In the case of `CSc1nc(NC2CC2)nc(NC(C)(C)C)n1` [Irgarol, 2-methylthio-4-tert-butylamino-6-cyclopropylamino-s-triazine], the “Barnacle biofouling (% settlement)” value in the experiment on Barnacle (0.1 nM), in the experiment on Barnacle (1 nM), in the experiment on Barnacle (10 nM) and with Barnacle (100 nM) was 100% throughout. Besides, the “Enteromorpha biofouling (% survival)” value with Enteromorpha (0.1 nM) is 100%; in the experiment on Enteromorpha (1 nM), 100%; in the experiment with Enteromorpha (10 nM) it was 50%; in the experiment with Enteromorpha (100 nM) it was 0%.
Regarding `CCCCCCCCn1sc(Cl)c(Cl)c1=O` [SeaNine, 4,5-dichloro-2-n-octyl-3(2H)-isothiazolone], the “Barnacle biofouling (% settlement)” value with Barnacle (0.1 nM) turned out to be 100%; in the experiment with Barnacle (1 nM), 50%; with Barnacle (10 nM), 10%; in the experiment with Barnacle (100 nM), 0%. The “Ulva biofouling (% survival)” value turned out to be 100% with Ulva (0.1 nM), 50% with Ulva (1 nM), 10% in the experiment on Ulva (10 nM) and 0% with Ulva (100 nM).
